Columns and labels:
Type in all cases: in vivo
enterocytes [1] = assay: Rat model of SBS: enterocyte apoptosis (TUNEL assay); conditions: SBS rats, oral insulin
Method: Animal treatment: Animals were obtained from the Rappaport Faculty of Medicine (Technion, Haifa, Israel). Male rats weighing 240-260 g were kept in individual stainless steel cages at constant temperature and humidity, and a 12-hour light-dark cycle was maintained. Rats were fasted 12 hours prior to the experiment with free access to water. Animals underwent one of two surgical procedures: bowel transection and re-anastomosis or 75% bowel resection and anastomosis. General anesthesia was induced with Pentobarbital (IP 40 mg/kg). Using sterile techniques, the abdomen was opened using a midline incision. […]
Group C—SBS-Insulin (SBS-INS, n=13) rats underwent bowel resection and were fed regular chow diet and water containing insulin (ACTRAPID insulin, NOVO NORDISK, Denmark) at concentration of 1 u/ml. Food and fluid intake of animals were monitored as well as weight for a period of 14 days following treatment after which the animals were sacrificed following intraperitoneal injection of pentobarbital (75 mg/kg).
Apoptosis of enterocytes was assessed by terminal […] nick-end labeling (TUNEL) immunohistochemical assay using the I.S. Cell Death Detection kit (Boehringer Mannheim GmbH, Mannheim, Germany). […] For each group, the number of stained cells was counted in at ten villi in areas without necrosis. […]

[2] = system: ischemia-reperfusion (IR) injury in rats; assay: Rat ischemia-reperfusion injury: intestinal histology (villus height, crypt depth, Park's injury grade)
Method: (§1) Surgical procedure: Following overnight fasting, the animals were anesthetized with intraperitoneal injection of pentobarbital (IP 40 mg/kg). Using sterile techniques, the abdomen was opened using a midline incision. […] IR underwent laparotomy, mobilization and occlusion of SMA and portal vein by vascular clamp for 30 minutes followed by a reperfusion period of 24 hours. Before closure of the abdomen, the rats were resuscitated with a 3-ml intraperitoneal injection of warm 0.9% saline. For all operations, the abdominal cavity was closed in two layers with a running suture of Dexon “S” Polyglycolic Acid 3/0. Rats were allowed free access to water and food. Twenty-four hours later, the rats were anesthetized with intraperitoneal pentobarbital (75 mg/kg) and were sacrificed by open pneumothorax.
Intestinal Histology: Intestinal samples from the proximal jejunum and distal ileum were fixed in 10% formalin, dehydrated in progressive concentrations of ethanol, cleared in xylene, and embedded in paraffin wax. Deparaffinized […] sections were stained with haematoxylin and eosin. Ten villi and crypts were selected for the microscopic analysis, using a 10×4 magnifying lens. Histological images were loaded on a 760×570 pixels resolution buffer using a computerized image analysis system composed of a trichip RGB video-camera (Sony, Japan), installed on a light microscope (Zeiss, Germany) and attached to an IBM compatible personal computer (Pentium III, MMX, 450 mhz, 125 MB RAM), equipped with a frame grabber. […] The villus height and crypt depth were measured using the Image Pro Plus 4 image analysis software (Media Cybernetics, Baltimore, Md., USA).
The degree of intestinal tissue injury was evaluated on a grading scale from 0 to 8 as described previously by Park et al., [Surgery. 107: 574, 1990]: 0—normal mucosa, 1—subepithelial space at villus tip, 2—more extended subepithelial space, 3—epithelial lifting along villus sides, 4—denuded villi, 5—loss of villus tissue, 6—crypt layer infarction, 7—transmucosal infarction, 8—transmural infarction.

[3] = system: jejunal and ileal crypt cells; assay: Rat ischemia-reperfusion injury: crypt cell proliferation (5-BrdU); conditions: IR rats, oral insulin, p<0.05
Method: as §1
Enterocyte proliferation and apoptosis: Crypt cell proliferation was assessed using 5-bromodeoxyuridine (5-BrdU). Standard BrdU labeling reagent (Zymed Laboratories, Inc, San Francisco, Calif.) was injected intraperitoneally at a concentration of 1 ml/100 g body weight 2 hours prior to sacrifice. […] An index of proliferation was determined as the ratio of crypt cells staining positively for BrdU per 10 crypts.

enterocytes [4] = assay: Rat ischemia-reperfusion injury: enterocyte apoptosis (TUNEL assay); conditions: IR rats, oral insulin; IR-untreated 2.8±0.7; p<0.05
Method: as §1
Apoptotic cells were identified using the terminal deoxynucleotidyl transferase-mediated, dUTP nick end-labeling (TUNEL) assay. Terminal deoxynucleotidyl transferase (TdT) (Boehringer Mannheim GmbH, Mannheim, Germany) was used to label DNA strand breaks. Incorporation of fluorescein was detected by anti-fluorescein antibody Fab fragments from sheep, conjugated with horse-radish peroxidase (POD) (Boehringer Mannheim GmbH, Mannheim, Germany). Briefly, five-micrometer paraffin-embedded sections were dewaxed and rehydrated with xylene and graded alcohol. […]

Substance: insulin
- apoptotic cells number in ileum (enterocytes [1]; vs SBS-untreated): did not affect
- apoptotic index in jejunum (enterocytes [1]; SBS-untreated 29±7, mean±SEM, p<0.05): 11±3 TUNEL positive cells/10 villi
- intestinal injury grade (Park's criteria) in jejunum and ileum ([2]; IR rats, oral insulin, vs IR-animals): did not significantly change
- ileal crypt depth ([2]; insulin treated IR rats, IR 131±7, p<0.05): 219±11 μm
- jejunal crypt depth ([2]; insulin treated IR rats, IR 167±8, p<0.05): 264±13 μm
- ileal villus height ([2]; insulin treated IR rats, IR 225±25, p<0.05): 421±40 μm
- jejunal villus height ([2]; insulin treated IR rats, IR 341±29, p<0.05): 622±91 μm
- enterocyte proliferation index in ileum ([3]; IR 173±8): 289±26 BrdU positive cells/10 crypts
- enterocyte proliferation index in jejunum ([3]; IR 212±18): 298±21 BrdU positive cells/10 crypts
- apoptotic index in ileum (enterocytes [4]): 1.2±0.4 TUNEL positive cells/10 villi

Reference: patent US8026211B2, “Methods and formulations for increasing intestinal function” (Technion Research & Development Foundation Ltd., priority 2004, dated 2011)
